Laboratory results reported in US6743586B2, “Rapid fluorescence detection of binding to nucleic acid drug targets labelled with highly fluorescent nucleotide base analogs” (The United States of America as represented by the …, priority 2001, dated 2004).
Read-outs that look alike come from different tables or passages of the source. *1 amine or outer side, *2 acyl side, *3 side chain or, on linkers, in order; H or OH if unused. Where no end group is shown, it is not given here. Suc = O=C(CCC(=O)[*:2])[*:1]

Columns and labels:
68AP-RRE = assay: 2-AP fluorescence titration of 68AP-RRE with aminoglycosides; format: binding, HIV-1
Description: For example, using the 68AP-RRE construct, three classes of binding sites for the Neomycin B can be detected.
(§1) The fluorescence of RNA oligonucleotide samples (150 μL), selectively labeled with 2-AP, was measured at 10° C. on a SPEX Fluoromax-2 spectrofluorometer (Instruments, SA, Edison, N.J.) using a 0.3 cm square cuvette. RRE sample concentration was typically 100 nM in either standard buffer A (140 mM NaCl, 5 mM KCl, 1 mM MgCl2, 1 mM CaCl2, and 20 mM HEPES [7.4 pH]) or buffer B (25 mM NaCl, 5 mM KCl and 1 mM Cacodylate [6.5 pH]). Emission spectra were recorded over the wavelength range of 330 to 450 nm with an excitation wavelength of 310 nm. The spectral bandpass was 5 nm for all spectra. The dissociation constant for rev binding to RRE-72AP was determined by following the increase in fluorescence at 370 nm as a fixed concentration of the fluorescent RNA was titrated with increasing amounts if rev. Similarly, the binding of aminoglycosides was followed by monitoring the change in 2-AP fluorescence as a fixed concentration of RRE-72AP or RRE-68AP was titrated with increasing amounts of the aminoglycoside. Single site binding of rev or aminoglycoside was fitted to Formula I: […]
where Fo and Ff are the initial and final fluorescence intensities, respectively, [RRE]tot is the total RRE concentration, and [L]tot is the total concentration of rev, aminoglycoside or other ligands. Aminoglycoside binding to multiple sites on RRE was modeled using the computer program Dynafit. Competitive displacement assays were performed to determine which aminoglycoside binding were inhibitory to rev binding. For these experiments, a solution of 2-AP labeled RRE was incubated with a fixed concentration of Neomycin B (or rev peptide), and the fluorescence change followed as increasing amounts of competing rev peptide (or Neomycin B) was added to the solution. The fluorescence emission intensities at 370 nm as a function of total added ligand concentration were fit to a given molecular mechanism by non-linear least squared regression using the computer program Dynafit.

72AP-RRE-peptide complex = assay: Competitive displacement: 72AP-RRE-peptide complex (1:1) titrated with Neomycin B, Dynafit fit; format: binding, HIV-1
Description: Quantitative analysis of the binding event indicates the rev peptide binds to 2-AP RRE with wild type affinity (KD˜13±2 nM). The fluorescent 72AP-RRE construct is also a useful probe for assaying small molecule binding to RRE, as well as determining if the small molecule is an effective inhibitor of the rev-RRE interaction. For example, it has been shown using the aminoglycoside Neomycin B, a known inhibitor of RRE-rev interaction, that the 72AP-RRE construct can be used to detect small molecule inhibition of the rev-RRE interaction. […]
as §1, with “RRE sample concentration was typically 100 nM in either standard buffer A (140 mM NaCl, 5 mM KCl, 1 mM MgCl2, 1 mM CaCl2, and 20 mM HEPES [7.4 pH]) or buffer B (25 mM NaCl, 5 mM KCl and 1 mM Cacodylate [6.5 pH]).” left out, “The spectral bandpass was 5 nm for all spectra.” left out, “aminoglycoside.” for “aminoglycoside. Single site binding of rev or aminoglycoside was fitted to Formula I:”

72AP-RRE = assay: 2-AP fluorescence titration of RRE-72AP with rev peptide; design: species or system HIV-1; settings: fluorescence at 370 nm, 10° C., wild type affinity, read-out: KD of rev peptide binding to 2-AP RRE
Description: The fluorescence of RNA oligonucleotide samples (150 μL), selectively labeled with 2-AP, was measured at 10° C. on a SPEX Fluoromax-2 spectrofluorometer (Instruments, SA, Edison, N.J.) using a 0.3 cm square cuvette. RRE sample concentration was typically 100 nM in either standard buffer A (140 mM NaCl, 5 mM KCl, 1 mM MgCl2, 1 mM CaCl2, and 20 mM HEPES [7.4 pH]) or buffer B (25 mM NaCl, 5 mM KCl and 1 mM Cacodylate [6.5 pH]). Emission spectra were recorded over the wavelength range of 330 to 450 nm with an excitation wavelength of 310 nm. The spectral bandpass was 5 nm for all spectra. The dissociation constant for rev binding to RRE-72AP was determined by following the increase in fluorescence at 370 nm as a fixed concentration of the fluorescent RNA was titrated with increasing amounts if rev. Similarly, the binding of aminoglycosides was followed by monitoring the change in 2-AP fluorescence as a fixed concentration of RRE-72AP or RRE-68AP was titrated with increasing amounts of the aminoglycoside. Single site binding of rev or aminoglycoside was fitted to Formula I:
F=−{(Fo−Ff)/2*[RRE]tot}{b−{square root over ((b^2−4[L]tot[RRE]tot))}}+Fo (1)
where Fo and Ff are the initial and final fluorescence intensities, respectively, [RRE]tot is the total RRE concentration, and [L]tot is the total concentration of rev, aminoglycoside or other ligands. […]

RRE = settings: direct binding, highly specific for the RRE; read-out: KD of rev binding to RRE; cited from earlier work

Molecule: NC[C@@H]1O[C@H](O[C@H]2[C@@H](O)[C@H](O[C@@H]3[C@@H](O)[C@H](N)C[C@H](N)[C@H]3O[C@H]3O[C@H](CN)[C@@H](O)[C@H](O)[C@H]3N)O[C@@H]2CO)[C@H](N)[C@@H](O)[C@@H]1O [Neomycin B]
- Kd (68AP-RRE; 68AP-RRE construct, read-out: KD, first site, non-inhibitory to rev binding): 240 ± 40 nM
- Kd (68AP-RRE; 68AP-RRE construct, read-out: KD, second site, inhibited rev binding in a competitive fashion): 1800 ± 80 nM
- Kd (68AP-RRE; 68AP-RRE construct, read-out: KD, third class of sites, non-specific binding): ~40000 nM
- Kd (72AP-RRE-peptide complex; read-out: KD, first tight site): ~230 nM
- Kd (72AP-RRE-peptide complex; read-out: KD, second site, competitive with rev): ~1900 nM

Molecule: [H]/N=C(/N)N[C@H]1[C@H](O)[C@@H](O)[C@H](O[C@@H]2O[C@@H](C)[C@](O)(C=O)[C@H]2O[C@@H]2O[C@@H](CO)[C@H](O)[C@@H](O)[C@@H]2NC)[C@@H](N/C(N)=N\[H])[C@@H]1O [Streptomycin]
- Kd (68AP-RRE; RRE, reported alongside the 68AP-RRE data, read-out: KD, low affinity binding interaction with RRE): 1500 nM

Molecule: Suc-TRQARRNRRWRERQRAAAK [rev peptide]
- Kd (72AP-RRE): ~13 nM

Molecule: rev: HIV-1 regulatory protein rev that binds the rev-responsive element (RRE)
- Kd (RRE): 1 to 3 nM
